Results on one compound are retold here after US12637469B2, “1H-pyrazole derivative and application thereof as dual target inhibitor of Syk and VEGFR2” (Ocumension Therapeutics (Suzhou) Co., Ltd., priority 2020, dated 2026).

Holding throughout (type): biochemical
The target of one experiment is T1, Fyn(h) (Homo sapiens, UniProt P06241).
T1 construct: purchased Eurofins (KinaseProfiler platform)
The experiment in a line: Eurofins KinaseProfiler off-target kinase inhibition. On the procedure: (§1) In order to investigate the specificity of the inhibition of the target by the compound, in this study, the activity and selectivity of test compound 1 on the off-target kinases in related pathways were tested on the Eurofins kinaseProfiler™ platform, and compound screening and analysis were conducted using IC50 value as the indicator.
(§2) Compound 1 was detected for each selected kinase using the standard Eurofins Kinase Profiler™ protocol, which followed the relevant standard operating procedures. The IC50 values of the inhibitory activity of the test compound 1 on 67 kinases including Abl(h), B-Raf(h), BTK(h) and JAK(h) were analyzed.

The target of the next experiment is T2, CDK2/cyclinA(h) (Homo sapiens, UniProt P24941).
T2 construct: purchased Eurofins (KinaseProfiler platform)
Described as above. How it is done:
as §1, §2

Another experiment has as its target T3, SAPK2b(h) (Homo sapiens, UniProt Q15759).
T3 construct: purchased Eurofins (KinaseProfiler platform)
Described as above. How it is done:
as §1, §2

The next experiment addresses T4, SAPK3(h) (Homo sapiens, UniProt P53778).
T4 construct: purchased Eurofins (KinaseProfiler platform)
The experiment is described as above. How it is done:
as §1, §2

A further experiment has as its target T5, Src(1-530)(h) (Homo sapiens, UniProt P12931).
T5 construct: Src(1-530)(h); purchased Eurofins (KinaseProfiler platform)
The description is as above. On the procedure:
as §1, §2

A further experiment concerns the target T6, mTOR/FKBP12(h) (Homo sapiens, UniProt P42345).
T6 construct: purchased Eurofins (KinaseProfiler service)
Described as above. On the procedure:
as §1, §2

In another experiment the target is T7, JAK2(h) (Homo sapiens, UniProt O60674).
T7 construct: purchased Eurofins (KinaseProfiler service)
Described as above. How it is done: as §1, §2

The target of the next experiment is T8, MKK4(m) (Mus musculus, UniProt P47809).
T8 construct: purchased Eurofins (KinaseProfiler service)
The experiment is described as above. How it is done:
as §1, §2

For another experiment, the target named is T9, CSK(h) (Homo sapiens, UniProt P41240).
T9 construct: purchased Eurofins (KinaseProfiler platform)
The description is as above. How it is done: as §1, §2

For a further experiment, the target named is T10, MAPKAP-K2(h) (Homo sapiens, UniProt P49137).
T10 construct: purchased Eurofins (KinaseProfiler service)
The description is as above. On the procedure: as §1, §2

In a further experiment the target is T11, PDGFRα(h) (Homo sapiens, UniProt P16234).
T11 construct: purchased Eurofins (KinaseProfiler service)
Described as above. On the procedure:
as §1, §2

The target of a further experiment is T12, IKKα(h) (Homo sapiens, UniProt O15111).
T12 construct: purchased Eurofins (KinaseProfiler platform)
The description is as above. On the procedure: as §1, §2

The next experiment has as its target T13, SAPK2a(h) (Homo sapiens, UniProt Q16539).
T13 construct: purchased Eurofins (KinaseProfiler platform)
The experiment is described as above. How it is done: as §1, §2

The next experiment has as its target T14, SAPK4(h) (Homo sapiens, UniProt O15264).
T14 construct: purchased Eurofins (KinaseProfiler platform)
Described as above. On the procedure: as §1, §2

Another experiment addresses T15, Syk kinase (Homo sapiens, UniProt P43405).
T15 construct: purchased Invitrogen PV3857
Put plainly: In vitro inhibitory effect on Syk kinase (HTRF enzymatic experiment). To be noted: ATP 2 μM, read-out: IC50 (nM) for inhibition of Syk enzyme. From the text:
The interaction between the substrate and the enzyme was detected by HTRF, using the IC50 value of the compound as an indicator to evaluate the inhibitory effect of the compound on Syk kinase.
• Syk kinase (Invitrogen, PV3857) • DTT (Sigma #43815) • ATP (Sigma #A7699) • MgCl2 (Sigma #63020) • MnCl2 (Sigma #M1787) • EDTA (Invitrogen #15575-020) • HEPES Buffer (Invitrogen #15630-080) • HTRF® KinEASE™ TK (Cisbio #62TKOPEC, 20000 tests) • Low volume, 384-well, white polystyrene plate (Greiner #784075) • 384 Well Microplates (Greiner #781946) • Centrifuge (Eppendorf #5810R) • Pipette (Eppendorf) • Pipette (Greiner) • Pipette gun (Eppendorf) • Mutidorp Pipette • POD 810 Plate Assembler Automatic Microplate Pretreatment System • Envision Reader • Experimental Steps and Methods: • a) Compound dilution and plate-making: • 1) The compound powder was weighed, dissolved in a certain amount of DMSO at an initial concentration of 10 mM. • 2) The compound was diluted to a concentration of 0.74 mM, and plated with POD18, 135 nL per well, the starting compound concentration was 10 μM, and there were 11 concentration points, with 3-fold descending serial dilutions. • b) Enzyme-substrate reaction stage: • 1) Preparation and dilution of the experimental buffer: the 5×HTRF Buffer in the kit was diluted to 1×, and specified amounts of DTT and MgCl2 solutions were added for use. • 2) SYK enzyme reaction solution was prepared with 1×HTRF Buffer so that the final reaction concentration of SYK kinase was 0.0156 ng/μL. • 3) TK-Substrate-biotin/ATP mixture was prepared so that the final substrate concentration was controlled at 0.2 μM. ATP concentration was controlled at 2 μM. • 4) The solution and the mixture were added with a Mutidorp pipette, SYK enzyme solution and TK-Substrate-biotin/ATP mixture were each added 5 μL per well, and incubated with 23 solution for 1 hour. • c) Detection stage: • 1) 13.33 mL of ethylenediaminetetraacetic acid solution was added to the detection buffer of the kit, and specified amounts of Eu-labeled antibody and XL-665 were added to prepare the detection solution. • 2) The solution was added with a Mutidorp pipette, 10 μL of detection solution per well, and incubated with 23 solution for 1 hour. The reaction of the enzyme and substrate mixture was stopped. • 3) After centrifugation, the reading was obtained on Envision. • d) Data analyzation: the data was analyzed using XL-Fit and the IC50 value of the compound was calculated.

T14 sequence (O15264 whole entry): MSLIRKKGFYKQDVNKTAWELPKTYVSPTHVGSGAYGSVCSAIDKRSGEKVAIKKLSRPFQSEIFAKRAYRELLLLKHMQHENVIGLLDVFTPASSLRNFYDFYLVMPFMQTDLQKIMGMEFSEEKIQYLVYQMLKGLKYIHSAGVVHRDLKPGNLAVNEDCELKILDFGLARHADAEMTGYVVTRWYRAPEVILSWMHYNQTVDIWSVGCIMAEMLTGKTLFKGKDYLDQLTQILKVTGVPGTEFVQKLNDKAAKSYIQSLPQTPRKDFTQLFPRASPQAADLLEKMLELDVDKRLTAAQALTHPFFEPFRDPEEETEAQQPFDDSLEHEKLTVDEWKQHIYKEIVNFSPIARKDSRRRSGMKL
T10 sequence (P49137 whole entry): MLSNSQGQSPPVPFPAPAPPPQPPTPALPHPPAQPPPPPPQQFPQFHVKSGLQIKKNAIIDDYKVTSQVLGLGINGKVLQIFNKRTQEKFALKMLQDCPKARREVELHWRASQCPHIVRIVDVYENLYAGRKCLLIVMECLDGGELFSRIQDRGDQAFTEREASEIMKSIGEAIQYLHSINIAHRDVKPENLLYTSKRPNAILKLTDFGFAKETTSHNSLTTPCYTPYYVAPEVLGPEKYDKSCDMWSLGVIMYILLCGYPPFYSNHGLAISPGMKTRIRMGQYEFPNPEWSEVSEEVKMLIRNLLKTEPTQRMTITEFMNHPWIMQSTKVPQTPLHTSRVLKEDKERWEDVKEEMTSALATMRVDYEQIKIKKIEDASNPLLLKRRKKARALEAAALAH
T13 sequence (Q16539 whole entry): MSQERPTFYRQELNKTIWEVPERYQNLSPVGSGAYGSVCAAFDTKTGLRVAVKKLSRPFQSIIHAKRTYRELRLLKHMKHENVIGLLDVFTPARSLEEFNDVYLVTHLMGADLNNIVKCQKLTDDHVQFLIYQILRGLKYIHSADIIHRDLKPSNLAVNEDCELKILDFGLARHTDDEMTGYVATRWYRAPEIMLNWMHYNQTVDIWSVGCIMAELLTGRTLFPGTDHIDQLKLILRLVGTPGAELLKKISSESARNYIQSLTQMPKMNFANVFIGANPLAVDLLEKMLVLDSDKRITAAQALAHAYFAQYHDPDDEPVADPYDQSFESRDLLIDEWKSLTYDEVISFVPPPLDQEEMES
T8 sequence (P47809 whole entry): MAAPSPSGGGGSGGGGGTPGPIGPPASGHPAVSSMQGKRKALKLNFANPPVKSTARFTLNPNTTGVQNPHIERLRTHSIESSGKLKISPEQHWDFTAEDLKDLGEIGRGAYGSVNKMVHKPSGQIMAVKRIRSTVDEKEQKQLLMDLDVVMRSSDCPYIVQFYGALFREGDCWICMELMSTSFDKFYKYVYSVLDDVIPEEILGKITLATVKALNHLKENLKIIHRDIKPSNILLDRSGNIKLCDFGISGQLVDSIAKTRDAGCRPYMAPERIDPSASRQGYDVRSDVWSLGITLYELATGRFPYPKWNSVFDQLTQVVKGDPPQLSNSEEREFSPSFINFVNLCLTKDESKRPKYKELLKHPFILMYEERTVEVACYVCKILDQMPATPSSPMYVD
T7 sequence (O60674 whole entry): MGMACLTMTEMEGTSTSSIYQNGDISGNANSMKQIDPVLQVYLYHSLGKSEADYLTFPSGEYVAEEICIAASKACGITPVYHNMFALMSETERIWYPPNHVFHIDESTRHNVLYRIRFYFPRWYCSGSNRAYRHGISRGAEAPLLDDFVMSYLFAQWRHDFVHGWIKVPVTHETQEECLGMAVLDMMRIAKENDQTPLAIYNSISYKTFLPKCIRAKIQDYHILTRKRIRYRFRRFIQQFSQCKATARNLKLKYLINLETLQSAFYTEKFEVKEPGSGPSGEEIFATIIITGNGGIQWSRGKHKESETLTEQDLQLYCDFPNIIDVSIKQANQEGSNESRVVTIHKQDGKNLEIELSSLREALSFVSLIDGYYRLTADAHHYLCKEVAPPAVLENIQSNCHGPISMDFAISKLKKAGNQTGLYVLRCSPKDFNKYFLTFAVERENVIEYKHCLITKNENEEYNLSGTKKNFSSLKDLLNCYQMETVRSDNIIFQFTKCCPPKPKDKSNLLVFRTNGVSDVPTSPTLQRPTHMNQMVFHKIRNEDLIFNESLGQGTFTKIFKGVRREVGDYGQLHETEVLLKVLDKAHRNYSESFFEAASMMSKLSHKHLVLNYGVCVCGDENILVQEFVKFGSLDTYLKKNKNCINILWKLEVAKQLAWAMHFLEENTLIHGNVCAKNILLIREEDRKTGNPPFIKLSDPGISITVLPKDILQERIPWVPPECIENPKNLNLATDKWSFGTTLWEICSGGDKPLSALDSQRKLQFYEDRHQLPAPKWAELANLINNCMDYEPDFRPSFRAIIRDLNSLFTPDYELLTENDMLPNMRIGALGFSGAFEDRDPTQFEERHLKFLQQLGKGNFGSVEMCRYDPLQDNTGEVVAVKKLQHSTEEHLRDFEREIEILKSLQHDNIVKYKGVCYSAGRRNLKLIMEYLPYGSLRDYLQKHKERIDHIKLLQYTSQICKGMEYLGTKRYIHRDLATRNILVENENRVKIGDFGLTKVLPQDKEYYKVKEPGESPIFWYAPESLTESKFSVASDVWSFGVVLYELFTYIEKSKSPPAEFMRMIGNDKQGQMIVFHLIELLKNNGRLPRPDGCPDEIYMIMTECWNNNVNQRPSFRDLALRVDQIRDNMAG
T9 sequence (P41240 whole entry): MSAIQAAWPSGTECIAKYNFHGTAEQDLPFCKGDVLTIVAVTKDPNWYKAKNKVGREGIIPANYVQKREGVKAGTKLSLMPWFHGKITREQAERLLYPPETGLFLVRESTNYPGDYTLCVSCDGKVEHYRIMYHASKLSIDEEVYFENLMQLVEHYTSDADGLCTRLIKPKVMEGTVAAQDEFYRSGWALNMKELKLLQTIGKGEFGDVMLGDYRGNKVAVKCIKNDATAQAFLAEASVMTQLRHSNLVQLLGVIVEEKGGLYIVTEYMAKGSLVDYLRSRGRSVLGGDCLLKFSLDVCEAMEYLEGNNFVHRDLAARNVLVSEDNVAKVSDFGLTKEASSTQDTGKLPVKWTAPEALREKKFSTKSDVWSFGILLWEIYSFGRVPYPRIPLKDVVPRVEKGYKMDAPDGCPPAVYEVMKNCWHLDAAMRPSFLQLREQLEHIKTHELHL
T3 sequence (Q15759 whole entry): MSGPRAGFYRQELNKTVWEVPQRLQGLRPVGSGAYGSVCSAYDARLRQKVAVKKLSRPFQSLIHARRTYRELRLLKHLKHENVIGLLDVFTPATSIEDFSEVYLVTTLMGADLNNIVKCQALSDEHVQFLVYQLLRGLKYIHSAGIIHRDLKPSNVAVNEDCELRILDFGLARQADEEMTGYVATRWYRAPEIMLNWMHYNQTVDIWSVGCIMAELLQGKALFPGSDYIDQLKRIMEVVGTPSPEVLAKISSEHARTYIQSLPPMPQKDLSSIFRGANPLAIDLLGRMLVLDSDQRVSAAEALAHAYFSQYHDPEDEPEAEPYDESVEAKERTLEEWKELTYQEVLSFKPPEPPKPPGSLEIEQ
T5 sequence (P12931 1-530): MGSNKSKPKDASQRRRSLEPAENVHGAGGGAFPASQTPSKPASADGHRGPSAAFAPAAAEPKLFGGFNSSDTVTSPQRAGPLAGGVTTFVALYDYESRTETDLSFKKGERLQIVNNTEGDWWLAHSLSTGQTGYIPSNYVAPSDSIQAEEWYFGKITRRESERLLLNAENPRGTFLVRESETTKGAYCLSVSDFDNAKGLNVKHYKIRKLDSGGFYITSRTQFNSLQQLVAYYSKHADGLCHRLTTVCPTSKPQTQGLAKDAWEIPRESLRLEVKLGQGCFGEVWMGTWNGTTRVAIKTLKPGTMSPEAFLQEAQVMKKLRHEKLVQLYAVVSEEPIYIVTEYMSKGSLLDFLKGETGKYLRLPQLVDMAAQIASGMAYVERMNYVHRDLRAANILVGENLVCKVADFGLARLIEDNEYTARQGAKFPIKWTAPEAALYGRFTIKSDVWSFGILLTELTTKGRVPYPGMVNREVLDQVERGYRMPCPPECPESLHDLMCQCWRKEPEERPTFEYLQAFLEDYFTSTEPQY
T1 sequence (P06241 whole entry): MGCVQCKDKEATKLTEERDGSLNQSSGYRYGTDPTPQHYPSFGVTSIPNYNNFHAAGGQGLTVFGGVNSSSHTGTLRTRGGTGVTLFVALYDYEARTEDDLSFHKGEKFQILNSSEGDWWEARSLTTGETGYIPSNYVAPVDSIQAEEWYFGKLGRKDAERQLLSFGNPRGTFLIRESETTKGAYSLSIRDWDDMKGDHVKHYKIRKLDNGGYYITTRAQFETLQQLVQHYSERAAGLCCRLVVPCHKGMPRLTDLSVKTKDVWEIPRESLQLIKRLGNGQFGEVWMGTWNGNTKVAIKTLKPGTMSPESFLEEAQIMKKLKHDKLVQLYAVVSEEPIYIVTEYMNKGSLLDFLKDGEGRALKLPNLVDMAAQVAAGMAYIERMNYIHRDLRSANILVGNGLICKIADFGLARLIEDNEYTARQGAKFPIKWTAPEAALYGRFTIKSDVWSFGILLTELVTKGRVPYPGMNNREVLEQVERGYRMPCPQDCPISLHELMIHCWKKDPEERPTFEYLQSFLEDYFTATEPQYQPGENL
T4 sequence (P53778 whole entry): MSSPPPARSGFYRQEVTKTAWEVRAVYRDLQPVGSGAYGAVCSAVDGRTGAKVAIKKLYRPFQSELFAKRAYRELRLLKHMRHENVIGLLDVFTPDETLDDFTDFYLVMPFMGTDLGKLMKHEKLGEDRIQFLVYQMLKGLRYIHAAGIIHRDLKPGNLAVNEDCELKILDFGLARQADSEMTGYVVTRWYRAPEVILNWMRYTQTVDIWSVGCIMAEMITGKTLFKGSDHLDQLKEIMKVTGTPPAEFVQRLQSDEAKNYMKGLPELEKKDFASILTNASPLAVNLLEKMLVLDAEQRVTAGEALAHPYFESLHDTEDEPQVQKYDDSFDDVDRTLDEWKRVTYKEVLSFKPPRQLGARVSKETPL

Turning to `c1cn2c(n1)c(Nc1ccc(N3CCOCC3)cc1)nc1ccc(-c3cn[nH]c3)cc12` [Compound 1], the IC50 against Fyn(h) was 373 nM; against CDK2/cyclinA(h) it was > 10000 nM; against SAPK2b(h), > 10000 nM; at SAPK3(h), > 10000 nM; at Src(1-530)(h) it was 827 nM; against mTOR/FKBP12(h) it was > 10000 nM. Moreover, the IC50 is 141 nM against JAK2(h); > 10000 nM on MKK4(m); > 10000 nM against CSK(h); > 10000 nM against MAPKAP-K2(h); 2700 nM on PDGFRα(h); 946 nM against IKKα(h). For the same compound, the IC50 was > 10000 nM at SAPK2a(h), > 10000 nM at SAPK4(h) and 15 nM on Syk kinase.
